Measurements reported in US20230339854A1, “Negative Allosteric Modulation of GluN3-Containing N-Methyl-D-Aspartate Receptors” (Emory University, priority 2020, published 2023).
Entries after “also recorded” stand apart in the source; their conditions may differ.

Tests used:
[1] = target: T1, human GluN1/GluN3A receptors (Homo sapiens, UniProt Q8TCU5); assay: Two-electrode voltage-clamp recordings of GluN1/GluN3A receptors in the presence of CGP-78608 (Xenopus oocytes); assay type: cell-based
T1 construct: Human GluN3A (NP_597702.2) and rat GluN3B (NP_579842.2) were synthesized and subcloned into SP6 plasmids; expressed in transfected cells; host or cells: Xenopus laevis oocytes, cRNA injection
Text: (§1) cDNA encoding human wild-type (WT) GluN1-1a (GenBank accession numbers NP_015566, hereafter GluN1) and rat GluN1-1a (NP_058706.1) were synthesized and subcloned into pGEMHE plasmid; some experiments used the rat splice variant GluN1-4a (NP_001257531.1). Human GluN3A (NP_597702.2) and rat GluN3B (NP_579842.2) were synthesized and subcloned into SP6 plasmids. For most experiments, human GluN1 was co-expressed with human GluN3A, except for mutagenesis experiments where rat GluN1 was co-expressed with human GluN3A. Rat GluN1-4a was always expressed with rat GluN3B.
(§2) Defolliculated Xenopus laevis oocytes (stage V-VI) were obtained from Ecocyte BioScience (Austin, Texas), or prepared from commercially available Xenopus ovaries (Xenopus 1, Dexter, MI) as previously described (Hansen, et al., Mol. Pharmacol., 2013). A Drummond Nanoject II (Broomall, PA) was used to inject oocytes with cRNAs encoding GluN1 and GluN3 at a 1:3 ratio in RNase-free water. The cRNA was diluted as needed to give responses with amplitudes ranging between 200-2000 nA (0.2-10 ng total cRNA). Following cRNA injection, the oocytes were stored at 15-19° C. in Barth's solution that contained (in mM) 88 NaCl, 2.4 NaHCO3, 1 KCl, 0.33 Ca(NO3)2, 0.41 CaCl2), 0.82 MgSO4, and 5 Tris-HCl (pH 7.4 with NaOH), supplemented with 1 μg/ml streptomycin (Invitrogen, Carlsbad, CA) and 100 μg/ml gentamicin (Fisher Scientific, Pittsburgh, PA). Recordings were performed 2-5 days following cRNA microinjection at room temperature (23° C.) using a two-electrode voltage-clamp amplifier (OC725, Warner Instrument, Hamilton, CT). The signal was low-pass filtered at 10-20 Hz (4-pole, −3 dB Bessel) and digitized at the Nyquist rate using PCI-6025E or USB-6212 BNC data acquisition boards (National Instruments, Austin, TX) using EasyOocyte (http://www.easyoocyte.io/). Oocytes were placed in a custom-made chamber and continuously perfused (2.5 ml/min) with oocyte recording solution containing (in mM) 90 NaCl, 1 KCl, 10 HEPES, 0.5-1.0 BaCl2, and 0.01 EDTA (pH 7.4 with NaOH). Solutions were applied by gravity, and solution exchange was controlled through a rotary valve (Hamilton, Reno, NV). Recording electrodes were filled with 0.3-3.0 M KCl, and current responses were recorded at a holding potential of −40 mV.
(§3) Response (%)=(100−minimum)/(1+([concentration]/IC50)^nH)+minimum (2) • where nH is the Hill slope, IC50 is the concentration that produces a half-maximal effect, and minimum is the degree of residual inhibition at a saturating concentration of the negative allosteric modulator.

[2] = target: T2, human GluN1/GluN3A receptors (Homo sapiens, UniProt Q05586+Q8TCU5); assay: as above; assay type: cell-based; details: pH 7.4; 0.5 μM CGP-78608; read-out: EC50, (95% CI) GluN1/GluN3A + CGP
T2 construct: Human GluN3A (NP_597702.2) and rat GluN3B (NP_579842.2) were synthesized and subcloned into SP6 plasmids; expressed in transfected cells; host or cells: Xenopus laevis oocytes, cRNA injection
Text: as §1, §2, §3

GluK2 kainate receptors = target: T3, GluK2 kainate receptors (Rattus norvegicus, UniProt P42260); assay: Kainate receptors in Xenopus oocytes (selectivity); assay type: cell-based; details: 20 μM
T3 construct: expressed in transfected cells; host or cells: Xenopus laevis oocytes, cRNA injection
Experimental: (§4) The numbers of oocytes recorded are in parentheses.
(§5) The cDNA was linearized by restriction enzymes (Thermo Fisher Scientific, Lithuania), and the cRNA encoding the receptor subunits was synthesized from the linear template cDNA using the mMESSAGE mMACHINE kit (Invitrogen/Thermo Fisher Scientific, Lithuania). The α1β1δγ nAChR subunits were injected at a 1:1:1:1 ratio while α4 […] nAChR subunits were injected at a 1:1 ratio. The cDNAs encoding GABA and glycine subunits were provided by Dr. D. Weiss (University of Texas Health Science Center at San Antonio). The cDNAs encoding nAChR subunits were provided by Drs. R. Papke (University of Florida) and S. Heinemann (Salk Institute). The cDNA encoding the purinergic receptor was provided by Dr. R. Hume (University of Michigan).
(§6) Responses in the presence of EU1180-438 were expressed as a percent of control calculated as the average of the responses before and after EU1180-438 exposure. […]
(§7) Defolliculated Xenopus laevis oocytes (stage V-VI) were obtained from Ecocyte BioScience (Austin, Texas), or prepared from commercially available Xenopus ovaries (Xenopus 1, Dexter, MI) as previously described (Hansen, et al., Mol. Pharmacol., 2013). […] Recording electrodes were filled with 0.3-3.0 M KCl, and current responses were recorded at a holding potential of −40 mV.

[3] = target: T4, rat GluN1-4a/GluN3B receptors (Rattus norvegicus, UniProt P35439+Q8VHN2); assay: Two-electrode voltage-clamp recordings of GluN1-4a/GluN3B receptors in the presence of CGP-78608 (Xenopus oocytes); assay type: cell-based; details: pH 7.4; 0.5 μM CGP-78608; read-out: EC50, (95% CI) GluN1/GluN3B + CGP
T4 construct: Human GluN3A (NP_597702.2) and rat GluN3B (NP_579842.2) were synthesized and subcloned into SP6 plasmids; expressed in transfected cells; host or cells: Xenopus laevis oocytes, cRNA injection
Text: as §1, §2, §3
(§8) Selected compounds were also screened in the same assay as EU1180-438 to determine their effect on GluN3B.

[4] = target: T5, rat GluN1-4a/GluN3B receptors (Rattus norvegicus, UniProt Q8VHN2); assay: as above; assay type: cell-based
T5 construct: Human GluN3A (NP_597702.2) and rat GluN3B (NP_579842.2) were synthesized and subcloned into SP6 plasmids; expressed in transfected cells; host or cells: Xenopus laevis oocytes, cRNA injection
Text: as §1, §2, §3, §8

[5] = target: T6, rat GluN1-4a^FA,TL/GluN3B receptors (Rattus norvegicus, UniProt Q8VHN2); assay: Two-electrode voltage-clamp recordings of GluN1-4a^FA,TL/GluN3B receptors (Xenopus oocytes); assay type: cell-based
T6 construct: Human GluN3A (NP_597702.2) and rat GluN3B (NP_579842.2) were synthesized and subcloned into SP6 plasmids; expressed in transfected cells; host or cells: Xenopus laevis oocytes, cRNA injection
Text: as §1
as §7, with “2013). A Drummond Nanoject II (Broomall, PA) was used to inject oocytes with cRNAs encoding GluN1 and GluN3 at a 1:3 ratio in RNase-free water. The cRNA was diluted as needed to give responses with amplitudes ranging between 200-2000 nA (0.2-10 ng total cRNA).” for “2013).”, “mV. […]” for “mV.”

GABA receptors = GABA receptors in Xenopus oocytes (selectivity); assay type: cell-based, rat; details: 20 μM
Experimental: as §4, §5, §6, §7

nicotinic receptors = assay: Nicotinic acetylcholine receptors in Xenopus oocytes (selectivity); assay type: cell-based, rat; details: 20 μM
Experimental: as §4, §5, §6, §7

[6] = target: native GluN1/GluN3A receptors (Mus musculus, UniProt A2AIR5); assay: Whole-cell patch-clamp of glycine-activated responses in hippocampal CA1 pyramidal cells, acute brain slices; assay type: cell-based; details: 30 μM; 1 μM CGP-78608; 10 mM glycine puffs
GluA1-4 AMPA receptors = assay: AMPA receptors in Xenopus oocytes (selectivity); assay type: cell-based, rat, human; details: 20 μM
[7] = 500 nM CGP-78608 plus 100 μM glycine
[8] = fitted maximum at saturating test compound, pH 7.4, 0.5 μM CGP-78608

T1 sequence (Q8TCU5 24-1115, other chains not shown): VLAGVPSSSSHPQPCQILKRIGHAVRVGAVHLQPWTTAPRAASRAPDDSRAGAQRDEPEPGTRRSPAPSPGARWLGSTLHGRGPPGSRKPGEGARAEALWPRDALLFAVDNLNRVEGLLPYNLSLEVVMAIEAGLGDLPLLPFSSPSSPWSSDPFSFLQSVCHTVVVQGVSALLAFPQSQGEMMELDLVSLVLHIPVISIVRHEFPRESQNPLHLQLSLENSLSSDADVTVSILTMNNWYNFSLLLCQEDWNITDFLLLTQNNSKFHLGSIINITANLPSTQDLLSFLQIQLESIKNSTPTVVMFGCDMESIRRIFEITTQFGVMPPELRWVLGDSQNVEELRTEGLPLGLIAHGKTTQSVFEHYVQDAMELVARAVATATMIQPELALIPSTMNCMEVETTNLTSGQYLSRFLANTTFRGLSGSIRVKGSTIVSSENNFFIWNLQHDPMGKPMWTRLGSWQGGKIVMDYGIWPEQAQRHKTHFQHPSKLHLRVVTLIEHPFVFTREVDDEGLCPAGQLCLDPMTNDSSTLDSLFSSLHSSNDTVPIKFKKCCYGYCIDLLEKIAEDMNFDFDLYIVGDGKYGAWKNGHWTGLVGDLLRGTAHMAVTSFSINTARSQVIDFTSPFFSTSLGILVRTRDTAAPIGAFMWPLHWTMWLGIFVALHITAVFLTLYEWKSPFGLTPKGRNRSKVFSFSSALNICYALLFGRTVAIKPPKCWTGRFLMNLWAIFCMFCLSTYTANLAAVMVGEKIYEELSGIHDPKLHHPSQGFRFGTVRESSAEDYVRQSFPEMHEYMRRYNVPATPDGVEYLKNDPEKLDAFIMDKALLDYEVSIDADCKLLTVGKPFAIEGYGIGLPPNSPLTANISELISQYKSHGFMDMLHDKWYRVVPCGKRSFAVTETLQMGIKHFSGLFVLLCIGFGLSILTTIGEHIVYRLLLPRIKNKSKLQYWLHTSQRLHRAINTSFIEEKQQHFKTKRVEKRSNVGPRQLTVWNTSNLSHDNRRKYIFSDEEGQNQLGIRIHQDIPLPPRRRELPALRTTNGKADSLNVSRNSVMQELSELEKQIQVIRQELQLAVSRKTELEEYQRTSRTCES
T5 sequence (Q8VHN2 25-1002, other chains not shown): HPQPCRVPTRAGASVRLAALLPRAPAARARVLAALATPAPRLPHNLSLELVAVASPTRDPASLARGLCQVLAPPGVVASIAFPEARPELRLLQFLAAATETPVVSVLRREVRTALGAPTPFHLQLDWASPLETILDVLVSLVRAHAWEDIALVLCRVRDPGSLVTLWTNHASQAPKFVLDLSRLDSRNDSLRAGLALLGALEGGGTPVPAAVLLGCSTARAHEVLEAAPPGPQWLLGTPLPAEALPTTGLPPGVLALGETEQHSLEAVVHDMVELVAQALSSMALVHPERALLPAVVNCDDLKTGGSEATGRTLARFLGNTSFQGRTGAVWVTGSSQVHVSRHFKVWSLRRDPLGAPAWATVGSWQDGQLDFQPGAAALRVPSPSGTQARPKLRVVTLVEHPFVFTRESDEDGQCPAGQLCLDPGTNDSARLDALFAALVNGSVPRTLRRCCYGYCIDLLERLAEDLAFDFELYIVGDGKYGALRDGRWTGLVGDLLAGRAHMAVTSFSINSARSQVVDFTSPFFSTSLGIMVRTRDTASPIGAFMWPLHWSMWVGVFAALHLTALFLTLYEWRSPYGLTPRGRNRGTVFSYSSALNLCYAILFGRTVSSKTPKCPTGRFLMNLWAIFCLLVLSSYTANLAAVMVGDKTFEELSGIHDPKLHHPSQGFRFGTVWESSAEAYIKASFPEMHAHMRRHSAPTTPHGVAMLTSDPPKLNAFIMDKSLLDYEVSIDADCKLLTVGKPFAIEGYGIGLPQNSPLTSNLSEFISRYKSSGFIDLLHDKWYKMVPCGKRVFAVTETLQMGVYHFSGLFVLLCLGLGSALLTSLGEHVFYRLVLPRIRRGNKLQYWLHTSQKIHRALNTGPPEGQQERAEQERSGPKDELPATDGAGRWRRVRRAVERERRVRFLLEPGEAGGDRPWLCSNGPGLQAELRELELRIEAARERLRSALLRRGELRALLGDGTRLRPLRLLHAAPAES
T6 sequence (Q8VHN2 25-1002, other chains not shown): as above
Sequence of native GluN1/GluN3A receptors (A2AIR5 27-1135, other chains not shown): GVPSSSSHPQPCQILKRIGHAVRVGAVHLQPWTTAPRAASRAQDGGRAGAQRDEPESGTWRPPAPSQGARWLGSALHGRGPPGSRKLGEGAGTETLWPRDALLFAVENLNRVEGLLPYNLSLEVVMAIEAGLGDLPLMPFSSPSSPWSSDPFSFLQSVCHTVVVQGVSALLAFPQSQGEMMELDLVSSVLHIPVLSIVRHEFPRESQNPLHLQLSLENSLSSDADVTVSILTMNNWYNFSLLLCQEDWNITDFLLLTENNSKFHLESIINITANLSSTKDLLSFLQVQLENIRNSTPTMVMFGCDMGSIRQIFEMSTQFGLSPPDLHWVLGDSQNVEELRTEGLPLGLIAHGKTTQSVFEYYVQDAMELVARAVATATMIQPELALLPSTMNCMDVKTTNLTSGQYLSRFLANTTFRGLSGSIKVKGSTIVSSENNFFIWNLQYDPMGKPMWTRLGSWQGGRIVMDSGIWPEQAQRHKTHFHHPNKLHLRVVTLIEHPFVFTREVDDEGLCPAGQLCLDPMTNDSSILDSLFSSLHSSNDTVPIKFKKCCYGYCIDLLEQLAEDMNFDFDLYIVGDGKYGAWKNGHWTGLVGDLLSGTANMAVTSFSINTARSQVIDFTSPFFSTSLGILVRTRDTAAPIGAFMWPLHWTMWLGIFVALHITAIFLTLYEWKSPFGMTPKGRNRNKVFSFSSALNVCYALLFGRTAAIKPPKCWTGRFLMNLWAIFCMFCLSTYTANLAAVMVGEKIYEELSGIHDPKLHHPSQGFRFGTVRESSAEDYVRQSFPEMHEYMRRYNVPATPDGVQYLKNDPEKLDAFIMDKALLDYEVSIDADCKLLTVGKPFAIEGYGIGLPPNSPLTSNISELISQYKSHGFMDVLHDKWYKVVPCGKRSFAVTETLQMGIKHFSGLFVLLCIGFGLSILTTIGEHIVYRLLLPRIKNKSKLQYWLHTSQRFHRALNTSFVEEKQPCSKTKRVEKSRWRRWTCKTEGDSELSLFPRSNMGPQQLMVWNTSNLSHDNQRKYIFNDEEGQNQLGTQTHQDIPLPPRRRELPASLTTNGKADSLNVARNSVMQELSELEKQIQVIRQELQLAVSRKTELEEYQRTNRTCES
T2 sequence (Q8TCU5 24-1115, other chains not shown): as the sequence (Q8TCU5 24-1115, other chains not shown) above
T4 sequence (Q8VHN2 25-1002, other chains not shown): as the sequence (Q8VHN2 25-1002, other chains not shown) above
T3 sequence (P42260 32-908): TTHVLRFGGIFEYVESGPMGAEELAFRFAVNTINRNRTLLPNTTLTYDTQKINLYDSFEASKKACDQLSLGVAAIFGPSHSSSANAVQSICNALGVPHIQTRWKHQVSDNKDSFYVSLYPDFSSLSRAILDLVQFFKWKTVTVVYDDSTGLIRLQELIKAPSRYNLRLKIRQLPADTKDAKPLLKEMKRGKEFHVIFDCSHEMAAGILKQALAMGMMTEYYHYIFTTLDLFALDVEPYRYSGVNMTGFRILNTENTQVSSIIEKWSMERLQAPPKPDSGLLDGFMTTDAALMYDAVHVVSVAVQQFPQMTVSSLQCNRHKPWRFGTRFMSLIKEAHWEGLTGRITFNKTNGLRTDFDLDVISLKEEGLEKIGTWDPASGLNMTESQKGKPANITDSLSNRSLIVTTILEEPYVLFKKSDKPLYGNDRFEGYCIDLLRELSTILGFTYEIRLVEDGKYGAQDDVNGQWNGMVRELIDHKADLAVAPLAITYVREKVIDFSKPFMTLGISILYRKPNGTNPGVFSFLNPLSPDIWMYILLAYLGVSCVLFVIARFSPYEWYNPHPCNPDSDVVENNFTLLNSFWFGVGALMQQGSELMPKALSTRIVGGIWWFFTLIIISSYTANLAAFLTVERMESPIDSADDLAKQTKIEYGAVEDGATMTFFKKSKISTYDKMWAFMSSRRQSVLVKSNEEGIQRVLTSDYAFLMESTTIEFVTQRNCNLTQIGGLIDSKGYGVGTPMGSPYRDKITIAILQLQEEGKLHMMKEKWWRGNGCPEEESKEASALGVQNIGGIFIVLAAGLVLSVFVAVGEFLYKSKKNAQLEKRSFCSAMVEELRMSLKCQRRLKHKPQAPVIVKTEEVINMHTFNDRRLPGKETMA

- maximal inhibition ([1]; 500 nM CGP-78608): 85%
- Slope [1, 7]: 1.5
- minimum [1, 7]: 15%
- % Inhibition GluN1/GluN3A + CGP [1, 8]: 85%, (n = 9)
- EC50 [2]: 1800 nM
- activity at GluK2 kainate receptors (GluK2 kainate receptors): virtually no activity
- EC50 [3]: 2200 nM
- maximal inhibition ([4]; 500 nM CGP-78608): 93%
- Slope [4, 7]: 1.5
- minimum [4, 7]: 7%
- % Inhibition GluN1/GluN3B + CGP [4, 8]: 93%, (n = 8)
- IC50 [5]: 5.2 µM
- inhibition at saturating concentrations [5]: 82%
- activity at GABA receptors (GABA receptors): virtually no activity
- activity at GluA1-4 AMPA receptors (GluA1-4 AMPA receptors): virtually no activity
Compound: COc1ccc(OCC(c2ccc(OC)cc2)N2Cc3ccccc3C2=O)cc1 (racemic) [EU1180-438, 2-(2-(4-methoxyphenoxy)-1-(4-methoxyphenyl)ethyl)isoindolin-1-one]
- activity at nicotinic receptors (nicotinic receptors): inhibited some, but not all, nicotinic receptors
- effect on glycine-activated responses from native GluN1/GluN3A receptors [6]: strong inhibition; also recorded: inhibited significantly
